Measured values reported in patent publication US9333244B2, “Composition and lipid formulation of a hyaluronan-degrading enzyme and the use thereof for treatment of benign prostatic hyperplasia” (Halozyme, Inc., priority 2011, dated 2016).

Experiments:
[1] = system: TE-induced rat prostatic hyperplasia; assay: Rat model of TE-induced prostatic hyperplasia: prostate weight; assay type: in vivo
Procedure: In this example, the ability of testosterone enanthate (TE) to induce prostatic hyperplasia in rat prostate was examined. Briefly, twenty-five (25) 8-week old male Sprague-Dawley rats (Harlan, USA) were dosed by intramuscular injection with 25 mg TE (Lot#80G010A, Abraxis Bioscience, Phoenix, Ariz.) per rat, once a week, on days 0, 7, 14 and 21. Five (5) out of 25 rats were sacrificed pre-TE treatment and 5 of the remaining 20 rats were sacrificed weekly. The ventral lobes of the prostates were harvested for analysis. […] Additionally, the increase in rat prostatic weight was linearly related to sustained TE exposure. The half-life of TE in the rat blood was approximately 10.5 days (Anderson R A, J Clin Endocrinol Metab., (1996) 81(3):896-901).
(§1) In this example, PEGPH20 was administered to TE-induced prostatic hyperplasic rats to evaluate its effect on prostate weight. Testosterone enanthate was administered by intramuscular injection and PEGPH20 (diluted in normal saline) was administered intravenously. Following treatment, the animals were sacrificed and the ventral lobes of the prostates were harvested for analysis. Prostate weight was measured using an electronic scale.
as §1, with “Testosterone” for “In this example, PEGPH20 was administered to TE-induced prostatic hyperplasic rats to evaluate its effect on prostate weight. Testosterone”
as §1, with “example, the time-dependence of treatment of rat BPH with” for “example,”, “evaluated by administering PEGPH20 at various time points.” for “administered to TE-induced prostatic hyperplasic rats to evaluate its effect on prostate weight.”
In this example, the effect of treatment with PEGPH20 was compared to treatment with finasteride using the rat TE-prostatic hyperplasia model. Testosterone enanthate was administered by intramuscular injection, PEGPH20 (diluted in normal saline) was administered intravenously and finasteride was administered intraperitoneally. On day 21 the animals were sacrificed and the ventral lobes of the prostates were harvested for analysis. Prostate weight was measured using an electronic scale.
In this example, the effect of combination therapy with PEGPH20 and finasteride was evaluated. PEGPH20 was administered at a dose of either 0.82 mg/kg (low dose) or 2 mg/kg (high dose). Testosterone enanthate was administered by intramuscular injection, PEGPH20 (diluted in normal saline) was administered intravenously and finasteride was administered intraperitoneally. On day 21 the animals were sacrificed and the ventral lobes of the prostates were harvested for analysis. Prostate weight was measured using an electronic scale.
Percent (%) inhibition was determined according to the formula: ((Control-treated)/Control)×100. […] The prostatic water content of each group was calculated from the wet weight and the dry weight and found to be the same for all groups (˜80%). Therefore, the change in prostate weight cannot be attributed to decreased tissue water.
Testosterone enanthate was administered by intramuscular injection, PEGPH20 was administered intravenously or by intra-prostatic injection and DepoGel vehicle or DepoPH20 were administered by intra-prostatic injection. On day 21 the animals were sacrificed and the ventral lobes of the prostates were harvested for analysis. Prostate weight was measured using an electronic scale.
(§2) In this study, 25 mg TE was administered […] to each rat on days 1 and 7. 50 μL of 4700 U/mL (0.18 mg/mL) MVL-PH20F40 and 50 μL MVL-Vehicle were administered intraprostatically on day 7. […]

prostate stromal cells = assay: TUNEL assay, apoptosis of stromal cells; assay type: in vivo, rat
Procedure: In this example, the ability of PEGPH20 to cause apoptosis of stromal cells was analyzed. In situ detection of cell apoptosis by TUNEL assay was based on a reaction for in situ terminal deoxynucleotidyl-transferase (TdT)-mediated biotinylated UTP nick-end labelling (TUNEL). This was essentially performed by using the FragEL DNA (Cat# QIA39-1EA, Calbiochem, Gibbstown, N.J.) according to the manufacturer's directions. In brief, de-paraffinized tissue sections were treated with proteinase K (0.02 mg/mL, Cat#25530, Invitrogen, Carlsbad, Calif.). The slides were then washed in Tris buffered saline (TBS), and endogenous peroxidase was blocked for 5 min in 3% H2O2 diluted in methanol. After washes in TBS, sections were treated with 1×TdT equilibration buffer at room temperature for 30 min and subsequently incubated with TdT labelling reaction mix ([…]) for 1.5 h at 37° C. The slides were rinsed in TBS and mounted using Fluorein-FragEL mounting media, then sealed with nail polish. The number of TUNEL-positive cells was counted on each section at ×200 under a light microscope.
as §2

[2] = cited from earlier work
[3] = system: prostatic stroma and stromal HA; assay: Prostatic histology: stromal HA (biotinylated HABP) and stromal proliferation (H&E); assay type: in vivo; conditions: rat prostate stroma; substance alone (PEGPH20 0.82 mg/kg iv, day 12; TE 25 mg/rat im days 0 and 8, day 18)
Procedure: In this example, the effect of PEGPH20 on prostatic stroma and stromal HA of normal and TE-induced prostatic hyperplasia rats was analyzed by prostatic histology, including hematoxylin and eosin staining and IHC staining. Stromal proliferation was determined by visually comparing the size of the stroma. Testosterone enanthate was administered by intramuscular injection and PEGPH20 (diluted in normal saline) and control were administered intravenously. Following treatment, the animals were sacrificed and the ventral lobes of the prostates were harvested for analysis.
Prostate tissues were fixed in 10% neutral buffered formalin in PBS for 24 hours, dehydrated with gradient ethanol, cleared with xylene, and embedded in paraffin. Paraffin block was cut to 5 μm sections. Tissue sections were dewaxed, rehydrated and processed by standard hematoxylin and eosin (H&E) staining. Histochemical localization of HA was carried out using a biotinylated-HABP probe (bHABP, Cat#400763-1A, Associates of Cape Cod, Mass.). Sections were deparaffinized in xylene, 2×5 min, hydrated in 100% ethanol, for 2×3 min, and in 95% ethanol for 1 min, then rinsed in distilled water, incubated at 37° C. for 20 min in a trypsin solution, and rinsed in PBS for 2×2 min. […]

Row | Compound | increase in prostate size ([1]; 25 mg TE per rat im once a week for a month) [fold] | Prostatic Weight (g) Mean ± SD ([1]; TE 25 mg/rat days 0, 7, 14, sacrificed day 21) [g] | Prostatic Weight Mean ± SD ([1]; TE 3 wks (25 mg/rat days 0, 7, 14), day 21) [g] | increase in prostate weight post TE exposure ([1]; day 7, TE 25 mg/rat im) [%] | increase in prostate weight post TE exposure ([1]; day 18, TE 25 mg/rat im days 0, 7 and 14) [%] | Prostatic Weight (g) Mean ± SD ([1]; group 1: 3 wk TE (25 mg/rat days 0, 7, 14), day 21) [g] | Prostatic Weight (g) Mean ± SD ([1]; group 1: TE 25 mg/rat days 0, 7, sacrificed day 28) [g] | Prostatic Weight (g) Mean ± SD ([1]; group 2: TE 25 mg/rat days 0, 7, 14, 21, sacrificed day 28) [g] | Prostatic Weight (g) Mean ± SD ([1]; group 3: TE 25 mg/rat days 0, 7, sacrificed day 21) [g] | Apoptotic cells/section Mean ± SD (prostate stromal cells; TE 7 d) [cells/section] | Apoptotic cells/section Mean ± SD (prostate stromal cells; TE 18 d) [cells/section] | half-life of TE in the rat blood [2] | Effect on HA [3] | Effect on Stroma [3] | inhibition of prostate growth ([1]; TE days 0, 7, PEGPH20 0.82 mg/kg iv QOD days 7-20 or finasteride 25 mg/kg ip daily days 7-20, day 21, vs TE alone P<0.01) | reduction in prostate size relative to vehicle control ([1]; TE days 1 and 7, finasteride 2.5 mg/kg ip daily starting on day 7) [%] | % Inhibit ([1]; group 4: 3 wk TE, finasteride (25 mg/kg ip daily, 2 wk)) [%] | Prostatic Weight (g) Mean ± SD ([1]; group 4: 3 wk TE, finasteride (25 mg/kg ip daily, 2 wk), day 21, P 0.007) [g]
1 | CCCCCCC(=O)O[C@H]1CC[C@H]2[C@@H]3CCC4=CC(=O)CC[C@]4(C)[C@H]3CC[C@]12C [TE, testosterone enanthate] | ~3 | 1.54 ± 0.07 | 1.64 ± 0.12 | 18.9 | 85.7 | 1.33 ± 0.23 | 1.49 ± 0.47 | 1.76 ± 0.18 | 1.57 ± 0.09 | 4.6 ± 2.51 | 1.75 ± 1.71 | approximately 10.5 days | Increased | Increased proliferation |  |  |  | 
2 | CC(C)(C)NC(=O)[C@H]1CC[C@H]2[C@@H]3CC[C@H]4NC(=O)C=C[C@]4(C)[C@H]3CC[C@]12C [finasteride, (5α,17β)-N -(1,1-dimethethylethy)-3-oxo-4-azaandrost-1-ene-17-carboxamide] |  |  |  |  |  |  |  |  |  |  |  |  |  |  | approximately 37% | 18.7 | 25.2 | 1.00 ± 0.19
